In patent publication US7250515B2, “Thiazolinone 3,4-disubstituted quinolines” (Hoffman-La Roche Inc., priority 2004, dated 2007):
Structures can show the parent of a compound that is named as a salt.

target: T1, recombinant human CDK1/Cyclin B complex (Homo sapiens, UniProt P06493); test: CDK1/Cyclin B kinase assay (FlashPlate or HTRF), Rb protein substrate; type: biochemical; details: Ki=IC50/(1+[S]/Km)
T1 construct: made in house; host or cells: High Five insect cells (baculovirus); Rb substrate made in E. coli M15
T1 sequence (P06493 whole entry): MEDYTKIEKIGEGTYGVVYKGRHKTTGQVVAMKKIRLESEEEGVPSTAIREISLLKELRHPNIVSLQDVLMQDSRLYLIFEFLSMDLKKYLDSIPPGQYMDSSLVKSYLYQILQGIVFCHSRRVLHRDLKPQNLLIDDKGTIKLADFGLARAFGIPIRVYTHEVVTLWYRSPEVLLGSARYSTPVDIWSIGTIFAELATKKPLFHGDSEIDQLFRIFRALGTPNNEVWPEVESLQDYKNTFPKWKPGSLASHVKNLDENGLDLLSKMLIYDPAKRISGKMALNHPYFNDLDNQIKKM
T1 sequence (P14635 whole entry partner): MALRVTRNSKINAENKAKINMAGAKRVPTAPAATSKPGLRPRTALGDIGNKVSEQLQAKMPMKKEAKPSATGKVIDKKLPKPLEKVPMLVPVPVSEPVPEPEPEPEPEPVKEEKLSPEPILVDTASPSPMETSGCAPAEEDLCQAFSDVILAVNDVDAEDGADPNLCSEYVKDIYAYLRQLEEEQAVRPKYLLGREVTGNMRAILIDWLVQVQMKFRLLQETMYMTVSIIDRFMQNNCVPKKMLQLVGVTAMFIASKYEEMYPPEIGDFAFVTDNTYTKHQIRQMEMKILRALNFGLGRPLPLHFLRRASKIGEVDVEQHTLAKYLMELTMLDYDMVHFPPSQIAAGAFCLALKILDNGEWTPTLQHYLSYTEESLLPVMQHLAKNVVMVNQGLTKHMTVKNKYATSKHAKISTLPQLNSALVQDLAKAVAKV
Description: To determine inhibition of CDK1 activity, either FlashPlate™ (NEN™-Life Science Products) assay or HTRF assay was performed. Both types of kinase assays were carried out using recombinant human CDK1/Cyclin B complex. GST-cyclinB (GST-cycB) and CDK1cDNA clones in baculovirus vectors were provided by Dr. W. Harper at the Baylor College of Medicine, Houston, Tex. Proteins were co-expressed in High Five™ insect cells and the complex was purified on glutathione Sepharose resin (Pharmacia, Piscataway, N.J.) as previously described (Harper, J. W. et al. Cell 1993, 75, 805-816). A 6×-Histidine tagged truncated form of retinoblastoma (Rb) protein (amino acid 386-928) was used as the substrate for the CDK1/Cyclin B assay (the expression plasmid was provided by Dr. Veronica Sullivan, Department of Molecular Virology, Roche Research Centre, Welwyn Garden City, United Kingdom). The Rb protein is a natural substrate for phosphorylation by CDK1 (see Herwig and Strauss Eur. J. Biochem. Vol. 246 (1997) pp. 581-601 and the references cited therein). The expression of the 62 Kd protein was under the control of an IPTG inducible promoter in an M15 E. coli strain. Cells were lysed by sonication and purification was carried out by binding lysates at pH 8.0 to a Ni-chelated agarose column pretreated with 1 mM imidazole. The resin was then washed several times with incrementally decreasing pH buffers to pH 6.0, and eluted with 500 mM imidazole. Eluted protein was dialyzed against 20 mM HEPES pH 7.5, 30% glycerol, 200 mM NaCl, and 1 mM DTT. Purified Rb fusion protein stocks were quantitated for protein concentration, aliquoted, and stored at −70° C.
For the FlashPlate kinase assay, 96-well FlashPlates were coated with Rb protein at 10 μg/ml, using 100 μl per well. Plates were incubated at 4° C. overnight or at room temperature for 3 hours on a shaker. To control for nonspecific phosphorylation, one row of wells was coated with 100 μl/well coating buffer (20 mM HEPES, 0.2 M NaCl). Plates were then washed twice with wash buffer (0.01% Tween 20 in phosphate-buffered saline). Compounds to be tested (“test compounds”) were added to the wells at 5× final concentration. Reactions were initiated by immediate addition of 40 μl reaction mix (25 mM HEPES, 20 mM MgCl2, 0.002% Tween 20, 2 mM DTT, 1 μM ATP, 4 nM 33P-ATP) and a sufficient amount of enzyme to give counts that were at least 10-fold above background. Plates were incubated at room temperature on a shaker for 30 minutes. Plates were washed four times with the wash buffer, sealed, and counted on the TopCount scintillation counter (Packard Instrument Co., Downers Grove, Ill.]. The percent inhibition of Rb phosphorylation, which is a measure of the inhibition of CDK activity, was determined according to the following formula:
[formula] where “test compound” refers to the average counts per minute of the test duplicates, “nonspecific” refers to the average counts per minute when no CDK1/Cyclin B, etc., was added, and “total” refers to the average counts per minute when no compound was added. The IC50 value is the concentration of test compound that reduces by 50% the protein-kinase induced incorporation of the radiolabel under the test conditions described. The value of the inhibitor constant Ki is calculated by the following: Ki=IC50/(1+[S]/Km), where [S] is the ATP concentration and Km is Michaelis constant.
The Homofeneous Time Resolved Fluorescence (HTRF) kinase assay was carried out in 96-well polypropylene plates (BD Biosciences, Bedford, Mass.). Test compounds were first dissolved in DMSO, and then diluted in kinase assay buffer 1 (25 mM HEPES, pH7.0, 8 mM MgCl2, 1.5 mM DTT, and 162 μM ATP) with DMSO concentration at 15%. The CDK1/Cyclin B enzyme was diluted in kinase assay buffer 2 (25 mM HEPES, pH 7.0, 8 mM MgCl2, 0.003% Tween 20, 0.045% BSA, 1.5 mM DTT, and 0.675 μM Rb protein). […]

SMILES	Ki [µM]
COc1c(C(=O)N(C)C)cnc2ccc(/C=C3\SC(N[C@@H]4C[C@H]4c4ccccc4)=NC3=O)cc12 [Example 10, 4-Methoxy-6-[4-oxo-2-((1R,2S)-2-phenyl-cyclopropylamino)-4H-thiazol-(5Z)-ylidenemethyl]-quinoline-3-carboxylic acid dimethylamide]	0.958
N#Cc1cnc2ccc(/C=C3\SC(N)=NC3=O)cc2c1OC1CCNCC1 [Example 30, 6-[2-Amino-4-oxo-4H-thiazol-(5Z)-ylidenemethyl]-4-(piperidin-4-yloxy)-quinoline-3-carbonitrile hydrochloride]	0.184
CC(C)Sc1c(C#N)cnc2ccc(/C=C3\SC(N)=NC3=O)cc12 [Example 40, 6-[2-amino-4-oxo-4H-thiazol-(5Z)-ylidenemethyl]-4-isopropylsulfanyl-quinoline-3-carbonitrile]	0.016
CC(C)Oc1c(C#N)cnc2ccc(/C=C3\SC(NN)=NC3=O)cc12 [Example 60, 6-[2-Hydrazino-4-oxo-4H-thiazol-(5Z)-ylidenemethyl]-4-isopropoxy-quinoline-3-carbonitrile hydrochloride salt]	0.028
CCCCOc1c(C#N)cnc2ccc(/C=C3\SC(N)=NC3=O)cc12 [Example 80, 6-[2-Amino-4-oxo-4H-thiazol-(5Z)-ylidenemethyl]-4-butoxy-quinoline-3-carbonitrile]	0.001

More lines, now with the values ahead:

Ki [µM]	SMILES
0.179	COC(=O)c1cnc2ccc(/C=C3\SC(N[C@@H](CO)c4ccccc4)=NC3=O)cc2c1OC [Example 5, 6-[2-((R)-2-Hydroxy-1-phenyl-ethylamino)-4-oxo-4H-thiazol-(5Z)-ylidenemethyl]-4-methoxy-quinoline-3-carboxylic acid methyl ester]
0.008	CCOc1c(C#N)cnc2ccc(/C=C3\SC(N)=NC3=O)cc12 [Example 15, 6-[2-Amino-4-oxo-4H-thiazol-(5Z)-ylidenemethyl]-4-ethoxy-quinoline-3-carbonitrile]
0.228	CCOc1c(C#N)cnc2ccc(/C=C3\SC(NCCn4ccnc4)=NC3=O)cc12 [Example 20, 4-Ethoxy-6-[2-(2-imidazol-1-yl-ethylamino)-4-oxo-4H-thiazol-(5Z)-ylidenemethyl]-quinoline-3-carbonitrile]
1	CCOc1c(C#N)cnc2ccc(/C=C3\SC(NCCOCCOC)=NC3=O)cc12 [Example 25, 6-[2-[2-(2-methoxy-ethoxy)-ethylamino]-4-oxo-4H-thiazol-(5Z)-ylidenemethyl]-4-ethoxy-quinoline-3-carbonitrile]
0.065	N#Cc1cnc2ccc(/C=C3\SC(N)=NC3=O)cc2c1SCCCO [Example 50, 6-[2-Amino-4-oxo-4H-thiazol-(5Z)-ylidenemethyl]-4-(3-hydroxy-propylsulfanyl)-quinoline-3-carbonitrile]
0.006	CC(C)(C)COc1c(C#N)cnc2ccc(/C=C3\SC(NC4CC4)=NC3=O)cc12 [Example 70, 6-[2-Cyclopropylamino-4-oxo-4H-thiazol-(5Z)-ylidenemethyl]-4-(2,2-dimethyl-propoxy)-quinoline-3-carbonitrile]
